Source: the NIST ThermoML archive (doi:10.1021/je200793z)

Tests used:
[1] = xn = mol fraction of the nth substance listed

CCC(C)CO (configuration not stated) [2-methyl-1-butanol]
Conditions | surface tension liquid-gas [mN/m]
293.15 K | 24.09
298.15 K | 23.61
303.15 K | 23.14
308.15 K | 22.69
313.15 K | 22.3
318.15 K | 21.86
323.15 K | 21.44

CC(C)CCO [3-methylbutan-1-ol]
Conditions | surface tension liquid-gas [mN/m]
293.15 K | 24.5
298.15 K | 24.15
303.15 K | 23.8
308.15 K | 23.36
313.15 K | 22.96
318.15 K | 22.57
323.15 K | 22.17

CCO [ethanol] + CCC(C)(C)O
[1], x2 = 0
Conditions | surface tension liquid-gas [mN/m]
293.15 K | 22.31
298.15 K | 21.82
303.15 K | 21.41
308.15 K | 21.04
313.15 K | 20.62
318.15 K | 20.22
323.15 K | 19.82

CCO [ethanol]
Conditions | surface tension liquid-gas [mN/m]
293.15 K | 22.31
298.15 K | 21.82
303.15 K | 21.41
308.15 K | 21.04
313.15 K | 20.62
318.15 K | 20.22
323.15 K | 19.82

CCC(C)(C)O [2-methylbutan-2-ol] + CCO
surface tension liquid-gas [mN/m], [1]
Conditions | 293.15 K | 298.15 K | 303.15 K | 308.15 K | 313.15 K | 318.15 K | 323.15 K
x1 = 0.0268 | 22.5 | 22.05 | 21.67 | 21.34 | 20.93 | 20.58 | 20.22
x1 = 0.0549 | 22.66 | 22.23 | 21.85 | 21.51 | 21.16 | 20.82 | 20.48
x1 = 0.0845 | 22.78 | 22.36 | 21.98 | 21.64 | 21.3 | 20.97 | 20.62
x1 = 0.1156 | 22.88 | 22.46 | 22.08 | 21.75 | 21.41 | 21.07 | 20.72
x1 = 0.1484 | 22.97 | 22.54 | 22.16 | 21.83 | 21.48 | 21.14 | 20.79
x1 = 0.183 | 23.04 | 22.61 | 22.23 | 21.89 | – | 21.2 | 20.84
x1 = 0.2584 | 23.16 | 22.73 | 22.34 | 21.99 | – | 21.28 | 20.92
x1 = 0.3433 | 23.28 | 22.84 | 22.45 | 22.09 | 21.73 | 21.36 | 21
x1 = 0.4395 | 23.41 | 22.97 | 22.56 | 22.19 | 21.82 | 21.45 | 21.08
x1 = 0.5495 | 23.55 | 23.1 | 22.68 | 22.29 | 21.92 | 21.53 | 21.16
x1 = 0.6765 | 23.7 | 23.24 | 22.81 | 22.4 | 22.02 | 21.62 | 21.23
x1 = 0.8247 | 23.88 | 23.41 | 22.96 | 22.53 | 22.15 | 21.73 | 21.34
x1 = 1 | 24.04 | 23.61 | 23.14 | 22.69 | 22.3 | 21.86 | 21.44
